Results from ChEMBL document CHEMBL3351376, “Design, synthesis, and structure-activity relationship of novel opioid κ receptor selective agonists: α-iminoamide derivatives with an azabicyclo[2.2.2]octene skeleton” (Bioorg Med Chem Lett, 2014).

Columns and labels:
Mu-type opioid receptor [1] = biological target: Mu-type opioid receptor (Mus musculus, UniProt P42866); assay: Displacement of [3H]DAMGO from mu opioid receptor in mouse brain membranes without cerebellum; format: cell membranes, Membrane
Sequence of Mu-type opioid receptor (Mus musculus, UniProt P42866) (P42866 whole entry): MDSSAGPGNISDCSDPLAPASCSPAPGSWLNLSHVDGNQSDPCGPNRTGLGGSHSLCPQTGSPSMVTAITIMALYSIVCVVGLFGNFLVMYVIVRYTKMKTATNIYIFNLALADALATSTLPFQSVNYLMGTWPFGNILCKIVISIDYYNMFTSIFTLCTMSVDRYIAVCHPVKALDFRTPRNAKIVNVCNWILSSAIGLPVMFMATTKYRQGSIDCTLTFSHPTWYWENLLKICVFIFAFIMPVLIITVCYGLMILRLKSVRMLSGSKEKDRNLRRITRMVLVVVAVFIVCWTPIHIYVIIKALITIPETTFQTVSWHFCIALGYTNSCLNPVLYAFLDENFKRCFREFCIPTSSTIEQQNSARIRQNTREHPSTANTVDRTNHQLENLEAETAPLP

[2] = biological target: Delta-type opioid receptor (Mus musculus, UniProt P32300); assay: Displacement of [3H]DPDPE from delta opioid receptor in mouse brain membranes without cerebellum; format: cell membranes, Membrane
Sequence of Delta-type opioid receptor (Mus musculus, UniProt P32300) (P32300 whole entry): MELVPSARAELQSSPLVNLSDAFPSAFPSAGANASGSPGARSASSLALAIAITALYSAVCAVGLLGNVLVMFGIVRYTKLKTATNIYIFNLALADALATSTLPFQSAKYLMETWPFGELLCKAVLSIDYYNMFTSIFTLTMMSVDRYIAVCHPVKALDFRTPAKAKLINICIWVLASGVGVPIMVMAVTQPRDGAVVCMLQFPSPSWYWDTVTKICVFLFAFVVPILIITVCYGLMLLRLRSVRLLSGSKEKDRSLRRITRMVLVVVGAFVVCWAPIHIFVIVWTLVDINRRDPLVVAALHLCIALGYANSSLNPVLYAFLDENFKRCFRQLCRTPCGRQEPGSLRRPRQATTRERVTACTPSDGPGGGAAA

[3] = biological target: Kappa-type opioid receptor (Cavia porcellus, UniProt P41144); assay: Displacement of [3H]U-69593 from kappa opioid receptor in guinea pig cerebellum
Sequence of Kappa-type opioid receptor (Cavia porcellus, UniProt P41144) (P41144 whole entry): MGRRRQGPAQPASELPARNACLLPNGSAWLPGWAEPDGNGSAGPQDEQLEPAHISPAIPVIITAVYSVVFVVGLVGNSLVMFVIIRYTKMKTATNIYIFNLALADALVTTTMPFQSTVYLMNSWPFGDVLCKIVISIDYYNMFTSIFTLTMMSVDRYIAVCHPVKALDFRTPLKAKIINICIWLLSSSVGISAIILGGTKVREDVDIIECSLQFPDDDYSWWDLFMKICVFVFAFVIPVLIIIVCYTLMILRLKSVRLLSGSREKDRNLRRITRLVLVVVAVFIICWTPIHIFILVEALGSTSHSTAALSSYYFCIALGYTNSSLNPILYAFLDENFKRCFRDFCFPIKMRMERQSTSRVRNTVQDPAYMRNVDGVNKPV

[4] = Selectivity ratio of Ki for mu opioid receptor in mouse brain membranes without cerebellum to Ki for kappa opioid receptor in guinea pig cerebellum; format: cell membranes
Mu-type opioid receptor [5] = biological target: T1, Mu-type opioid receptor (Homo sapiens, UniProt P35372); assay: Agonist activity at human mu opioid receptor expressed in CHO cells by [35S]GTPgammaS binding assay; format: functional, cell-based
T1 sequence (P35372 whole entry): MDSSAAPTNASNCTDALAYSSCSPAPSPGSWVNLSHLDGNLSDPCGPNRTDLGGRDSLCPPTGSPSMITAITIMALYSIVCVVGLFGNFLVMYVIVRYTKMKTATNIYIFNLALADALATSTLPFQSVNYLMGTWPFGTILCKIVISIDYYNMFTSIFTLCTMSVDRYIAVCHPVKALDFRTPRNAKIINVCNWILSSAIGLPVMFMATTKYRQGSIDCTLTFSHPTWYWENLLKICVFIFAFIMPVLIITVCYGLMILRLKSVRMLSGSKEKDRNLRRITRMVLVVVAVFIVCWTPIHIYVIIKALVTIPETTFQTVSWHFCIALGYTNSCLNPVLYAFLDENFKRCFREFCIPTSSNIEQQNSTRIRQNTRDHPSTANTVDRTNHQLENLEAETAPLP

[6] = biological target: T2, Delta-type opioid receptor (Homo sapiens, UniProt P41143); assay: Agonist activity at human delta opioid receptor expressed in CHO cells by [35S]GTPgammaS binding assay; format: functional, cell-based
T2 sequence (P41143 whole entry): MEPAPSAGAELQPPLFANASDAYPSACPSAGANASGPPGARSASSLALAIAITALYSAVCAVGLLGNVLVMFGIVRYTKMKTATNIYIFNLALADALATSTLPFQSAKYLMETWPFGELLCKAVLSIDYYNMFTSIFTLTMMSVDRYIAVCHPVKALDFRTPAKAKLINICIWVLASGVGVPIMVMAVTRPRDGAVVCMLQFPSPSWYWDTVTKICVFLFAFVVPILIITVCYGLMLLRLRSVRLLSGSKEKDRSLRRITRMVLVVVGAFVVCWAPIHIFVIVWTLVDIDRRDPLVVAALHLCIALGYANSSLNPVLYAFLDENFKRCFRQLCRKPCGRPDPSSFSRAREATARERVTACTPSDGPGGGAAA

[7] = biological target: T3, Kappa-type opioid receptor (Homo sapiens, UniProt P41145); assay: Agonist activity at human kappa opioid receptor expressed in CHO cells by [35S]GTPgammaS binding assay; format: functional, cell-based
T3 sequence (P41145 whole entry): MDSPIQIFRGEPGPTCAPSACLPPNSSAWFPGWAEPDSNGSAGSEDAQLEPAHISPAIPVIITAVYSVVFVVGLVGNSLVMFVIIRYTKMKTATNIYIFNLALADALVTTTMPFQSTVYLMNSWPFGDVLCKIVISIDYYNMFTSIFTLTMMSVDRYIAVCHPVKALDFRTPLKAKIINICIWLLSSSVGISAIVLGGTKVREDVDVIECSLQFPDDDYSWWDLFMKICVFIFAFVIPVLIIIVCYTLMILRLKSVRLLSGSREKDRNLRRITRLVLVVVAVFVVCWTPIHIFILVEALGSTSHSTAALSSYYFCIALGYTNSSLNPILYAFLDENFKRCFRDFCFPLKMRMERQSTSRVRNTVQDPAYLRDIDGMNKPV

Mu-type opioid receptor [8] = biological target: T1, Mu-type opioid receptor; assay: Agonist activity at human mu opioid receptor expressed in CHO cells by [35S]GTPgammaS binding assay relative to DAMGO; format: functional, cell-based
[9] = biological target: T2, Delta-type opioid receptor; assay: Agonist activity at human delta opioid receptor expressed in CHO cells by [35S]GTPgammaS binding assay relative to SNC80; format: functional, cell-based
[10] = biological target: T3, Kappa-type opioid receptor; assay: Agonist activity at human kappa opioid receptor expressed in CHO cells by [35S]GTPgammaS binding assay relative to U-69593; format: functional, cell-based

Structure (SMILES) | Ki (Mu-type opioid receptor [1]) | Ki [2] | Ki [3] | Ratio Ki [4] | EC50 (Mu-type opioid receptor [5]) | EC50 [6] | EC50 [7] | Emax (Mu-type opioid receptor [8]) | Emax [9] | Emax [10]
O=C1C[C@H]2N(CN1Cc1ccccc1)[C@@]13CC[C@]2(O)C2Oc4c(O)ccc5c4C21CCN(CC1CC1)C3C5 (some centres undefined) | 0.43 nM | 4.93 nM | 1.54 nM | 0.28 | – | – | – | – | – | –
O=C(Nc1ccccc1)C1=N[C@@]23CC[C@]1(O)C1Oc4c(O)ccc5c4C12CCN(CC1CC1)C3C5 (some centres undefined) | 0.36 nM | 0.32 nM | 0.38 nM | 0.95 | – | – | – | – | – | –
O=C(NCc1ccccc1)[C@H]1N[C@@]23CC[C@]1(O)C1Oc4c(O)ccc5c4C12CCN(CC1CC1)C3C5 (some centres undefined) | 0.24 nM | 0.81 nM | 0.23 nM | 1.04 | – | – | – | – | – | –
Oc1ccc2c3c1OC1C34CCN(CC3CC3)C(C2)[C@]42CC[C@@]1(O)C=N2 (some centres undefined) | 0.28 nM | 6.12 nM | 1.42 nM | 0.2 | – | – | – | – | – | –
O=C1C[C@@H]2N(CN1Cc1ccccc1)[C@@]13CC[C@]2(O)C2Oc4c(O)ccc5c4C21CCN(CC1CC1)C3C5 (some centres undefined) | 0.68 nM | 3.83 nM | 7.74 nM | 0.09 | – | – | – | – | – | –
O=C(C[C@@H]1N[C@@]23CC[C@]1(O)C1Oc4c(O)ccc5c4C12CCN(CC1CC1)C3C5)NCc1ccccc1 (some centres undefined) | 0.13 nM | 1.12 nM | 0.11 nM | 1.16 | – | – | – | – | – | –
O=C(C[C@H]1N[C@@]23CC[C@]1(O)C1Oc4c(O)ccc5c4C12CCN(CC1CC1)C3C5)NCc1ccccc1 (some centres undefined) | 0.052 nM | 0.15 nM | 0.037 nM | 1.42 | – | – | – | – | – | –
O=C(NCc1ccccc1)C1=N[C@@]23CC[C@]1(O)C1Oc4c(O)ccc5c4C12CCN(CC1CC1)C3C5 (some centres undefined) | 0.14 nM | 0.61 nM | 0.043 nM | 3.25 | 0.4 nM | 1.7 nM | 0.033 nM | 101% | 93.2% | 91.2%
CN(C(=O)/C=C/c1ccoc1)[C@@H]1CC[C@@]2(O)[C@H]3Cc4ccc(O)c5c4[C@@]2(CCN3CC2CC2)[C@H]1O5 [NALFURAFINE] | – | – | – | – | 0.72 nM | – | – | 70.4% | 55.2% | –
O=C(NCCc1ccccc1)C1=N[C@@]23CC[C@]1(O)C1Oc4c(O)ccc5c4C12CCN(CC1CC1)C3C5 (some centres undefined) | 0.4 nM | 0.86 nM | 0.12 nM | 3.5 | 1.09 nM | > 1000 nM | 0.18 nM | 44.9% | – | 76.3%
O=C(NCc1ccccc1)[C@@H]1N[C@@]23CC[C@]1(O)C1Oc4c(O)ccc5c4C12CCN(CC1CC1)C3C5 (some centres undefined) | 0.15 nM | 0.45 nM | 0.18 nM | 0.83 | – | – | – | – | – | –
